Test results: ChEMBL document CHEMBL1131776, “Potent, elective human beta3 adrenergic receptor agonists containing a substituted indoline-5-sulfonamide pharmacophore” (Bioorg Med Chem Lett, 1999)

Columns and labels:
[1] = target: Beta-2 adrenergic receptor (Homo sapiens, UniProt P07550); assay: biochemical
Description: In vitro binding affinity towards cloned human beta-2 adrenergic receptor using [125I]iodocyanopindolol as radioligand to stimulate increase in cAMP in CHO cells

[2] = target: Beta-1 adrenergic receptor (Homo sapiens, UniProt P08588); assay: biochemical
Description: In vitro binding affinity towards cloned human beta-1 adrenergic receptor using [125I]iodocyanopindolol as radioligand to stimulate increase in cAMP in CHO cells

[3] = target: T1, Beta-3 adrenergic receptor (Homo sapiens, UniProt P13945); assay: In vitro agonistic activity against cloned human beta-3 adrenergic receptor […] increase in cAMP in CHO cells; format: functional, cell-based
Target sequence in this assay (P13945 whole entry): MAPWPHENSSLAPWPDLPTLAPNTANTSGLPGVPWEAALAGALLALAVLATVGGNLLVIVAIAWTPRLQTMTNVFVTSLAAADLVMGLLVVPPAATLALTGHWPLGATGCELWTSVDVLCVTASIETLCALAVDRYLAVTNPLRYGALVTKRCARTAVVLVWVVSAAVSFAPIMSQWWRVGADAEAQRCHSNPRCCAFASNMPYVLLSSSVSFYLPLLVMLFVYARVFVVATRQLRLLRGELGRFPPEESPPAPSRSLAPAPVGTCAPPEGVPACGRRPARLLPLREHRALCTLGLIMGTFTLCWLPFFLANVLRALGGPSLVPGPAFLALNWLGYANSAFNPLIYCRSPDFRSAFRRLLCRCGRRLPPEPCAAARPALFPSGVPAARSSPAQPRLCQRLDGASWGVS

[4] = target: T1, Beta-3 adrenergic receptor; assay: Adenylyl cyclase activation as percent maximal stimulation with isoproterenol at 100 nM; format: functional
Target sequence in this assay (P13945 whole entry, looked up): as the sequence (P13945 whole entry) above

Chain of Beta-1 adrenergic receptor (P08588 whole entry): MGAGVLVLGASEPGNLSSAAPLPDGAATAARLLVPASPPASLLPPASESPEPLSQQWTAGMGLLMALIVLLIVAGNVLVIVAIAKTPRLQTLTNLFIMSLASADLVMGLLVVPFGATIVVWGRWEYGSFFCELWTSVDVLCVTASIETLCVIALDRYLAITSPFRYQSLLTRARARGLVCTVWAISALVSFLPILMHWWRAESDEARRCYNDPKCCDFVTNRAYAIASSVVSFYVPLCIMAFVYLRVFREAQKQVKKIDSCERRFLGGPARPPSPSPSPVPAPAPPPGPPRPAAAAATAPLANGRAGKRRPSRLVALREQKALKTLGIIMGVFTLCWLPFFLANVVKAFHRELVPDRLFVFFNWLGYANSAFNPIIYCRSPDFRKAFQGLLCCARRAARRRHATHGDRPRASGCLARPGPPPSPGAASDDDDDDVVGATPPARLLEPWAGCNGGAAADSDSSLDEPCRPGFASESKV
Chain of Beta-2 adrenergic receptor (P07550 whole entry): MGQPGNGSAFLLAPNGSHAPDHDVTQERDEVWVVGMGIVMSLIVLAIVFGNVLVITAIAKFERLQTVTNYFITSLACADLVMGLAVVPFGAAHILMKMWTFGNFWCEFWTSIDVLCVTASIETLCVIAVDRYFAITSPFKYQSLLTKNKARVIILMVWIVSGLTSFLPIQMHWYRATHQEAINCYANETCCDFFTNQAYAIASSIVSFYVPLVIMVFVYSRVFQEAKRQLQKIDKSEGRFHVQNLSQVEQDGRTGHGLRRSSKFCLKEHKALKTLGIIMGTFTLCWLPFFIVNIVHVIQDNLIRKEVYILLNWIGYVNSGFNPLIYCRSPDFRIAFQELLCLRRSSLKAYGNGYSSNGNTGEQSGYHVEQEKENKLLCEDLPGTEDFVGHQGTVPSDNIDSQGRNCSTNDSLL

Structure (SMILES) | IC50 [1] [µM] | IC50 [2] [µM] | EC50 [3] [µM] | Activation [4] [%]
CCCCCCCCNC(=O)N1CCc2cc(S(=O)(=O)Nc3ccccc3)ccc21 | 0.63 | 1 | 0.00073 | 
CCCCCCCCc1cccc(N2CCc3cc(S(=O)(=O)Nc4ccccc4)ccc32)n1 | 0.063 | 0.22 | 0.001 | 
Cc1csc(N2CCc3cc(S(=O)(=O)Nc4ccccc4)ccc32)n1 | 0.75 | 4 | 0.0081 | 
CCCCCCC(=O)N1CCc2cc(S(=O)(=O)Nc3ccccc3)ccc21 | 2 | 10 | 0.088 | 
CCCCCCCCc1csc(Nc2ccc(S(=O)(=O)Nc3ccccc3)cc2)n1 | 0.34 | 0.65 | 0.0008 | 
O=S(=O)(Nc1ccccc1)c1ccc2c(c1)CCN2c1noc(CCCC2CCCC2)n1 | 0.042 | 0.33 |  | 20
O=S(=O)(Nc1ccccc1)c1ccc2c(c1)CCN2c1nc(CCCC2CCCC2)cs1 | 0.9 | 4 | 0.0032 | 
CCCCCCc1csc(N2CCc3cc(S(=O)(=O)Nc4ccccc4)ccc32)n1 | 0.51 | 1.4 | 0.0009 | 
CCCCCCCCc1csc(N(C)c2ccc(S(=O)(=O)Nc3ccccc3)cc2)n1 | 0.44 | 1.5 | 0.0055 | 
CCCCCCCCN(C)C(=O)N1CCc2cc(S(=O)(=O)Nc3ccccc3)ccc21 | 1 | 0.97 | 0.018 | 
CCCCCCCCc1ccnc(N2CCc3cc(S(=O)(=O)Nc4ccccc4)ccc32)n1 | 0.53 | 1 | 0.0024 | 
O=S(=O)(Nc1ccccc1)c1ccc2c(c1)CCN2c1cccc(CCCC2CCCC2)n1 | 0.45 | 3 | 0.0017 | 
CCCCCCc1ccnc(N2CCc3cc(S(=O)(=O)Nc4ccccc4)ccc32)n1 | 0.62 | 1.4 | 0.0051 | 

Continued, values first:

IC50 [1] [µM] | IC50 [2] [µM] | EC50 [3] [µM] | Activation [4] [%] | Structure (SMILES)
0.1 | 0.58 | 0.031 |  | CCCCCCCCc1nc(N2CCc3cc(S(=O)(=O)Nc4ccccc4)ccc32)no1
0.14 | 0.9 | 0.0012 |  | CCCCCCc1cccc(N2CCc3cc(S(=O)(=O)Nc4ccccc4)ccc32)n1
6.5 | 10 | 0.047 |  | CCCCCCN(C)C(=O)N1CCc2cc(S(=O)(=O)Nc3ccccc3)ccc21
 |  | 0.00065 |  | O=S(=O)(Nc1ccc(CCNC[C@H](O)COc2ccc(O)cc2)cc1)c1ccc2c(c1)CCN2
7.3 | 100 | 0.055 |  | CNC(=O)N1CCc2cc(S(=O)(=O)Nc3ccccc3)ccc21
0.46 | 0.7 | 0.0018 |  | CCCCCCc1cccc(N2CCc3cc(S(=O)(=O)Nc4ccccc4)ccc32)c1
0.18 | 4.2 | 0.0037 |  | CCCCCCCCc1cnc(N2CCc3cc(S(=O)(=O)Nc4ccccc4)ccc32)o1
7.5 | 4 | 0.005 |  | O=S(=O)(Nc1ccccc1)c1ccc2c(c1)CCN2c1cccc(CCCC2CCCC2)c1
1.5 | 2.5 | 0.0013 |  | CCCCCCCCc1cccc(N2CCc3cc(S(=O)(=O)Nc4ccccc4)ccc32)c1
36 | 40 | 0.0069 |  | CCCCCCNC(=O)N1CCc2cc(S(=O)(=O)Nc3ccccc3)ccc21
0.052 | 0.6 | 0.013 |  | CCCCCCc1nc(N2CCc3cc(S(=O)(=O)Nc4ccccc4)ccc32)no1
10 | 10 |  | 20 | CCCCCCNC(=O)N(C)c1ccc(S(=O)(=O)Nc2ccc(CCNC[C@H](O)c3cccnc3)cc2)cc1
1 | 1.8 | 0.007 |  | CCCCCCCCC(=O)N1CCc2cc(S(=O)(=O)Nc3ccccc3)ccc21
2.5 | 10 | 0.055 |  | CN(CCc1ccccc1)C(=O)N1CCc2cc(S(=O)(=O)Nc3ccccc3)ccc21
8 | 3 |  | 17 | CN(C(=O)N1CCc2cc(S(=O)(=O)Nc3ccccc3)ccc21)C(C)(C)Cc1ccccc1
7 | 9 |  | 8 | CN(C)C(=O)N1CCc2cc(S(=O)(=O)Nc3ccccc3)ccc21
1.3 | 2.6 | 0.00093 |  | CCCCCCCCc1csc(N2CCc3cc(S(=O)(=O)Nc4ccccc4)ccc32)n1
0.24 | 1.8 | 0.0016 |  | CCCCCCc1ccc(N2CCc3cc(S(=O)(=O)Nc4ccccc4)ccc32)nc1
